The source of these data is patent publication US9212204B2, “Treatment of rett syndrome using glycyl-L-2-methylprolyl-L-glutamic acid” (priority 2011, dated 2015).

Like-named read-outs stand apart in the source and are kept apart here. Non-standard residues stand in square brackets, D forms with d. Residues, ends and D or L forms follow the SMILES beside them. αMeP = C[C@@]1(C(=O)O)CCCN1

For data set [1], the system named is layer 5 pyramidal neurons in motor cortex of P28 knockout mice. The data set is described as follows: Golgi staining, cortical spine density. It is filed as in vivo, mouse. Particulars: knockout with treatment. How it is done: Samples (<1 cm) from P28 mice are fixed in 10% formalin and 3% potassium bichromate for 24 hours. Tissue is then transferred into 2% silver nitrate for 2 days in the dark at room temperature. Sections from these samples are then cut at 50 μm thickness into distilled water. Sections corresponding to motor cortex are mounted onto slides, air dried for 10 minutes, and then dehydrated through sequential rinses of 95% alcohol, 100% alcohol, and xylene, and then sealed with a coverslip. Images re acquired at 10× (whole cell) and 100× (spine imaging) using a Zeiss Pascal 5 Exciter confocal microscope.
We use Golgi staining to label neurons sparsely and distinctly, and applied high-resolution confocal imaging to measure dendritic spine density and morphology in the labelled cells, restricting analysis to layer 5 pyramidal neurons in sections of motor cortex from critical period mice (P28).
While low-magnification imaging clearly delineates the extent of the dendrites of the pyramidal cells we use higher magnifications to count synaptic contacts and determine the morphological class of each spine. We classify spines as either large and bulbous (“mushroom”, M), short and stubby (“stubby”, S), short and thin (“thin”, T) or filopodia (F).

Data set [2] concerns hemizygous MeCP2(1lox) male mice. Type of data set: in vivo. Particulars: for time to 50 percent death: 20 mg/kg/day i.p. An excerpt:
To determine whether G-2-MePE treatment can impact the development and progression of Rett Syndrome in a murine model of the disorder, we used hemizygous MeCP2(1lox) male mice. The MeCP2 knock-out (MeCP2-KO) mouse system is widely accepted in the art as closely mimicking the range and the severity of physiological and neurological abnormalities characteristic of the human disorder, Rett Syndrome.

The test system of another data set is gastrointestinal cells. Particulars: cited from earlier work.
The subject of data set [3] is Tbx1 heterozygous, Cntnap2 knockout, Slc9a6 knockout and fmr1 knockout mice. Put plainly: Genetic mouse models of ASD and Fragile X Syndrome. Type of data set: in vivo. Particulars: 20 mg/kg/day i.p. How it is done:
Effects of G-2-MePE are further tested in the following genetic models of ASD: the Tbx1 heterozygous mouse, the Cntnap2 knockout mouse and the Sic9a6 knockout mouse. G-2-MePE is also tested in the fmr1 knockout mouse model of Fragile X Syndrome.
Animals in each of the above models are generated in accordance with the methodology described in the cited literature. Wild type equivalents are also obtained for each genetic model. Animals in each model are divided into three groups (n=10 to n=20): placebo treated wild type mice, mutant G-2-MePE-treated group and mutant placebo-treated control group.
The treatments are administered intraperitoneally: placebo (saline) or 20 mg/kg/day of G-2-MePE.

Data set [4] concerns slices of hippocampus from MeCP2 deficient mice. Put plainly: Hippocampal long-term potentiation in MeCP2 deficient mice. It is filed as in vivo, mouse. Particulars: 20 mg/kg/day i.p. from week 4 to week 9; vs saline. An excerpt: MeCP2 deficient mice have been previously reported to suffer from functional and ultrastructural synaptic dysfunction, significant impairment of hippocampus-dependent memory and hippocampal long-term potentiation (LTP) (Moretti et al. The Journal of Neuroscience. 2006. 26(1):319-327). To test the effects of the G-2-MePE treatment on synaptic function in the RTT model we compared hippocampal LTP in both vehicle and G-2-MePE treated animals at 9 weeks of age. To do so, we measured the slope of the fEPSP as a % of baseline potential in neurons in slices of hippocampus from MeCP2 deficient mice treated with either saline or G-2-MePE (FIG. 23).

In data set [5] the test system is 12-month old male Wistar rats. Put plainly: Morris water maze test, spatial reference memory. Type of data set: in vivo, rat. The protocol: We used male Wistar rats 12, 8 or 4 months of age.
The Morris water maze test was conducted using a black plastic pool filled to a depth of 25 cm with water colored black with a non-toxic dye. […] The platform remained in that position though the training.
The experiment used extra-maze cues (i.e. objects in the room surrounding the pool) that the rats could use to navigate to the platform. Distinctive posters or paintings were hung on the walls. Furniture in the room was not moved during the testing period. The placement of the pool allowed the experimenter an easy access to it from all sides. The pool was emptied and refilled daily during testing, with water at 25° C.+/−2° C.
The furthermost point in the pool (relative to the position of the experimenter) was designated as “north”, and the other compass points “east”, “south” and “west” were the right-most, bottom and left-most points of the pool respectively. These points were marked with tape on the outside of the pool.
Rats in each group were trained to swim to the submerged platform. The rats received six 60-second trials per day for four consecutive days. A trial began by placing the rat into the water facing the wall of the pool, at one of four start locations (north, south, east, west). […]

With `C[C@@]1(C(=O)N[C@@H](CCC(=O)O)C(=O)O)CCCN1C(=O)CN` [Example G-2-MePE, Glycyl-L-2-methylprolyl-L-glutamic acid] (H-Gly-[αMeP]-Glu-OH), in data set [1], the “density of spines per unit branch” value is recorded as “largely ameliorated”. For the same molecule, the “time to 50 percent death” value in data set [2] (data initially presented) was 16 weeks. In data set [2] (re-examination with control group re-run), the “time to 50 percent death” value is listed as 16 weeks. Also, the “safety in mecp2 mice” value in data set [2] (mouse, in vivo) was “No safety concerns”. Moreover, in the data set on gastrointestinal cells, the “degradation by gastrointestinal cells” value is listed as “not degraded” and the “uptake by gastrointestinal cells” value was “taken up”. For the same molecule, the “measures associated with the ASD phenotype” value in data set [3] is given as “significantly improves”. For the same molecule, the “slope of fEPSP (hippocampal LTP)” value in data set [4] is reported as “increased”. Moreover, the “time needed to reach the platform, retention phase” value in data set [5] (high (4.8 mg/day) or low (0.96 mg/day) dose, vs saline-treated controls, 12 month old rats) was “decrease in the time needed to reach the platform”. The “retention of the original water maze task” value in data set [5] (high dose 4.8 mg/day s.c. minipump over 3 weeks, 4-week delay, vs 3-week vehicle) is on record as “improved the retention”.
